This is an account of results in patent US20130053381A1, “2,4-DIOXO-1,4-DIHYDRO-2H-QUINAZOLIN-3-YL-SULFONAMIDE DERIVATIVES” (NOVARTIS AG, priority 2010, published 2013).

The subject of one assay is OF1 mice. Briefly: Maximal electroshock test (MES Test). It counts as in vivo. The conditions noted are these: Mus musculus, po; 50 mg/kg, p.o., pre-treatment time −0.5 h (footnote d); read-out: %-Protection. On the procedure:
Compounds of the invention were tested in OF1 mice using the maximal electroshock test (MES Test) described in detail by Schmutz et al., Naunyn-Schmiedeberg's Arch Pharmacol 1990, 342, 61-66. Briefly, generalized tonic-clonic convulsions of the hind extremities were induced by passing electrical current through temporal electrodes (50 Hz, 18 mA, 0.2s). […] 30 mg/kg carbamazepine was used as a positive control; mice were classified as protected by a compound If the duration of the seizure lasted only 3 second or less. Five mice were used for each treatment condition and the percentage of protected mice was used as readout (i.e. a compound could give 0%, 20%, 40%, 60%, 80% or 100% protection). Usually, compounds of the invention or their parents were given at a dose of 50 mg/kg, p.o., 1 hour prior to induction of convulsions (i.e. “pre-treatment time −1 h”).
ED50 values (ED: effective dose) were calculated using GraphPad Prism, v4.02. after shock administration, mouse blood was collected for determination of compounds' blood exposure.
For orientation: In the maximal electroshock model the usual endpoint is tonic extension of the hind limbs.
Turning to `CC(=O)N(n1c(=O)[nH]c2cc(C(C)C)c(-c3ccnn3C)cc2c1=O)S(C)(=O)=O` [Example 3.01, N-Acetyl-N-[7-isopropyl-6-(2-methyl-2H-pyrazol-3-yl)-2,4-dioxo-1,4-dihydro-2H-quinazolin-3-yl]-methanesulfonamide], the responders at 50 mg/kg worked out at 100%.

The same assay, now with this note: Mus musculus, po; 50 mg/kg, p.o., pre-treatment time −1 h; read-out: %-Protection.
For the compound `CCCCC(=O)N(n1c(=O)[nH]c2cc(C(F)(F)F)c([C@H]3CCCO3)cc2c1=O)S(C)(=O)=O` [Example 10.11, N—((R)-2,4-Dioxo-6-tetrahydro-furan-2-yl-7-trifluoromethyl-1,4-dihydro-2H-quinazolin-3-yl)-N-pentanoyl-methanesulfonamide], the responders at 50 mg/kg is 20%.

For `CCCCOC(=O)N(n1c(=O)[nH]c2cc(C(F)(F)F)c(-c3ccnn3CC)cc2c1=O)S(C)(=O)=O` [Example 15.03, [6-(2-Ethyl-2H-pyrazol-3-yl)-2,4-dioxo-7-trifluoromethyl-1,4-dihydro-2H-quinazolin-3-yl]-methanesulfonyl-carbamic acid butyl ester], the responders at 50 mg/kg came out at 20%. In the case of `CCCCCCOC(=O)N(n1c(=O)[nH]c2cc(C(C)C)c(-c3ccnn3C)cc2c1=O)S(C)(=O)=O` [Example 3.22, [7-Isopropyl-6-(2-methyl-2H-pyrazol-3-yl)-2,4-dioxo-1,4-dihydro-2H-quinazolin-3-yl]-methanesulfonyl-carbamic acid hexyl ester], the responders at 50 mg/kg was 100%. Consider `CCCCC(=O)N(n1c(=O)[nH]c2cc(C(F)(F)F)c(-n3cnnc3)cc2c1=O)S(C)(=O)=O` [Example 9.03, N-(2,4-Dioxo-6-[1,2,4]triazol-4-yl-7-trifluoromethyl-1,4-dihydro-2H-quinazolin-3-yl)-N-pentanoyl-methanesulfonamide], for which the responders at 50 mg/kg came to 20%.

`CCCC(=O)N(n1c(=O)[nH]c2cc(C(F)(F)F)c(-n3ccnc3C)cc2c1=O)S(C)(=O)=O` [Example 7.02, N-Butyryl-N-[6-(2-methyl-imidazol-1-yl)-2,4-dioxo-7-trifluoromethyl-1,4-dihydro-2H-quinazolin-3-yl]-methanesulfonamide]: the responders at 50 mg/kg is 20%. Turning to `CCCC(=O)N(n1c(=O)c2cc(-c3ccnn3C)c(C(C)C)cc2n(C(=O)CCC)c1=O)S(C)(=O)=O` [Example 3.26, N-Butyryl-N-[1-butyryl-7-isopropyl-6-(2-methyl-2H-pyrazol-3-yl)-2,4-dioxo-1,4-dihydro-2H-quinazolin-3-yl]-methanesulfonamide], the responders at 50 mg/kg was 80%. Regarding `COC(=O)N(n1c(=O)[nH]c2cc(C(F)(F)F)c(-n3cccc3)cc2c1=O)S(C)(=O)=O` [Example 8.04, (2,4-Dioxo-6-pyrrol-1-yl-7-trifluoromethyl-1,4-dihydro-2H-quinazolin-3-yl)-methanesulfonyl-carbamic acid methyl ester], the responders at 50 mg/kg stood at 20%. As for `CCC(=O)N(n1c(=O)[nH]c2cc(CC)c(-c3ccnn3CC)cc2c1=O)S(C)(=O)=O` [Example 13.03, N-[7-Ethyl-6-(2-ethyl-2H-pyrazol-3-yl)-2,4-dioxo-1,4-dihydro-2H-quinazolin-3-yl]-N-propionyl-methanesulfonamide], the responders at 50 mg/kg was 20%. Take `CC(C)COC(=O)N(n1c(=O)[nH]c2cc(C(F)(F)F)c([C@H]3CCCO3)cc2c1=O)S(C)(=O)=O` [Example 10.08, Methanesulfonyl-N—((R)-2,4-dioxo-6-tetrahydro-furan-2-yl-7-trifluoromethyl-1,4-dihydro-2H-quinazolin-3-yl)-carbamic acid isobutyl ester]: the responders at 50 mg/kg amounted to 20%. The same measure, in the same setting: the figure for `COCCOCCOCC(=O)N(n1c(=O)[nH]c2cc(C(C)C)c(-c3ccnn3C)cc2c1=O)S(C)(=O)=O` [Example 3.28, N-[7-Isopropyl-6-(2-methyl-2H-pyrazol-3-yl)-2,4-dioxo-1,4-dihydro-2H-quinazolin-3-yl]-N-[2-[2-(2-methoxy-ethoxy)-ethoxy]-acetyl]-methanesulfonamide] is 100%.

On to `CCn1nccc1-c1cc2c(=O)n(NS(C)(=O)=O)c(=O)[nH]c2cc1C(F)F` [Example 14.0, N-[7-Difluoromethyl-6-(2-ethyl-2H-pyrazol-3-yl)-2,4-dioxo-1,4-dihydro-2H-quinazolin-3-yl]-methanesulfonamide], for which the responders at 50 mg/kg was found to be 0%. Turning to `CCC(=O)N(n1c(=O)[nH]c2cc(C(F)(F)F)c(-c3ccnn3C(C)C)cc2c1=O)S(C)(=O)=O` [Example 5.02, N-[6-(2-Isopropyl-2H-pyrazol-3-yl)-2,4-dioxo-7-trifluoromethyl-1,4-dihydro-2H-quinazolin-3-yl]-N-propionyl-methanesulfonamide], the responders at 50 mg/kg was determined as 20%. Still for that read-out and setting: the figure for `CCC(OC)c1cc2c(=O)n(N(C(=O)C(C)C)S(C)(=O)=O)c(=O)[nH]c2cc1C(F)(F)F` (stereo not shown) [Example 11.06, N-Isobutyryl-N-[6-(1-methoxy-propyl)-2,4-dioxo-7-trifluoromethyl-1,4-dihydro-2H-quinazolin-3-yl]-methanesulfonamide] is 100%. On the same count and under the same terms, in the case of `CCCCCOC(=O)N(n1c(=O)[nH]c2cc(C(F)(F)F)c(C(CC)OC)cc2c1=O)S(C)(=O)=O` (stereo not shown) [Example 11.12, Methanesulfonyl-[6-(1-methoxy-propyl)-2,4-dioxo-7-trifluoromethyl-1,4-dihydro-2H-quinazolin-3-yl]-carbamic acid pentyl ester] it was 20%; in that of `CC(C)c1cc2[nH]c(=O)n(N(C(=O)CCN3CCOCC3)S(C)(=O)=O)c(=O)c2cc1-c1ccnn1C` [Example 3.38, N-[7-Isopropyl-6-(2-methyl-2H-pyrazol-3-yl)-2,4-dioxo-1,4-dihydro-2H-quinazolin-3-yl]-N-(3-morpholin-4-yl-propionyl)-methanesulfonamide], 80%. Turning to `COCCOC(=O)N(n1c(=O)[nH]c2cc(C(F)(F)F)c(-c3ccnn3C)cc2c1=O)S(C)(=O)=O` [Example 1.07, Methanesulfonyl-[6-(2-methyl-2H-pyrazol-3-yl)-2,4-dioxo-7-trifluoromethyl-1,4-dihydro-2H-quinazolin-3-yl]-carbamic acid 2-methoxy-ethyl ester], the responders at 50 mg/kg was found to be 80%. Still for that read-out and setting: in the case of `CCOC(=O)N(n1c(=O)[nH]c2cc(CC)c(-c3ccnn3C)cc2c1=O)S(C)(=O)=O` [Example 2.08, Methanesulfonyl-[7-ethyl-6-(2-methyl-2H-pyrazol-3-yl)-2,4-dioxo-1,4-dihydro-2H-quinazolin-3-yl]-carbamic acid ethyl ester] it was 80%.

The same assay, now with this note: Mus musculus, po; 50 mg/kg, p.o., pre-treatment time −2 h (footnote a); read-out: %-Protection.
`CCCC(=O)N(n1c(=O)[nH]c2cc(C(F)(F)F)c(-n3cnnc3)cc2c1=O)S(C)(=O)=O` [Example 9.04, N-Butyryl-N-(2,4-dioxo-6-[1,2,4]triazol-4-yl-7-trifluoromethyl-1,4-dihydro-2H-quinazolin-3-yl)-methanesulfonamide]: the responders at 50 mg/kg was 20%.

Regarding `CCC(=O)N(n1c(=O)[nH]c2cc(C(F)(F)F)c(-n3ccnc3)cc2c1=O)S(C)(=O)=O` [Example 4.04, N-(6-Imidazol-1-yl-2,4-dioxo-7-trifluoromethyl-1,4-dihydro-2H-quinazolin-3-yl)-N-propionyl-methanesulfonamide], the responders at 50 mg/kg was 40%.

The assay is the same for the next values; noted with them: Mus musculus, po; Dose: 15 mg/kg, p.o. (footnote c), pre-treatment time −1 h; read-out: %-Protection.
As for `CCOC(=O)CCCC(=O)N(n1c(=O)[nH]c2cc(C(C)C)c(-c3ccnn3C)cc2c1=O)S(C)(=O)=O` [Example 3.08, 5-{[7-Isopropyl-6-(2-methyl-2H-pyrazol-3-yl)-2,4-dioxo-1,4-dihydro-2H-quinazolin-3-yl]-methanesulfonyl-amino}-5-oxo-pentanoic acid ethyl ester], the responders at 15 mg/kg is 100%.

With `COC(=O)N(n1c(=O)[nH]c2cc(C(C)C)c(-c3ccnn3C)cc2c1=O)S(C)(=O)=O` [Example 3.05, [7-Isopropyl-6-(2-methyl-2H-pyrazol-3-yl)-2,4-dioxo-1,4-dihydro-2H-quinazolin-3-yl]-methanesulfonyl-carbamic acid methyl ester], the responders at 15 mg/kg worked out at 60%.

Still in this assay, the particulars now being: Mus musculus, po; Table 5; 50 mg/kg, p.o., pre-treatment time −0.25 h; read-out: %-Protection.
Turning to `CC(=O)N(n1c(=O)[nH]c2cc(C(C)C)c(-c3ccnn3C)cc2c1=O)S(C)(=O)=O` [Example 3.01, N-Acetyl-N-[7-isopropyl-6-(2-methyl-2H-pyrazol-3-yl)-2,4-dioxo-1,4-dihydro-2H-quinazolin-3-yl]-methanesulfonamide], the responders at 50 mg/kg was determined as 40%.

The same assay, now with this note: Mus musculus, po; Table 5; 50 mg/kg, p.o., pre-treatment time −1 h; read-out: %-Protection.
As to `CC(=O)N(n1c(=O)[nH]c2cc(C(C)C)c(-c3ccnn3C)cc2c1=O)S(C)(=O)=O` [Example 3.01, N-Acetyl-N-[7-isopropyl-6-(2-methyl-2H-pyrazol-3-yl)-2,4-dioxo-1,4-dihydro-2H-quinazolin-3-yl]-methanesulfonamide], the responders at 50 mg/kg is 100%.

Staying with this assay, now noted: Mus musculus; dose of up to 50 mg/kg, p.o., 1 hour prior to induction of convulsions; read-out: %-Protection.
For `CCC(=O)N(n1c(=O)[nH]c2cc(C(F)F)c(-c3ccnn3CC)cc2c1=O)S(C)(=O)=O` [N-[7-Difluoromethyl-6-(2-ethyl-2H-pyrazol-3-yl)-2,4-dioxo-1,4-dihydro-2H-quinazolin-3-yl]-N-propionyl-methanesulfonamide], the responders at 50 mg/kg amounted to 0%. Same read-out and setting: in the case of `CCCCOC(=O)N(n1c(=O)[nH]c2cc(C(F)F)c(-c3ccnn3CC)cc2c1=O)S(C)(=O)=O` [[7-Difluoromethyl-6-(2-ethyl-2H-pyrazol-3-yl)-2,4-dioxo-1,4-dihydro-2H-quinazolin-3-yl]-methanesulfonyl-carbamic acid butyl ester] it was 0%; in that of `CCn1nccc1-c1cc2c(=O)n(N(C(=O)COC(C)=O)S(C)(=O)=O)c(=O)[nH]c2cc1C(F)(F)F` [Acetic acid 2-{[6-(2-ethyl-2H-pyrazol-3-yl)-2,4-dioxo-7-trifluoromethyl-1,4-dihydro-2H-quinazolin-3-yl]-methanesulfonyl-amino}-2-oxo-ethyl ester], 0%.

The same assay, now with this note: Table 5; 50 mg/kg, p.o., pre-treatment time −0.5 h.
In the case of `CC(=O)N(n1c(=O)[nH]c2cc(C(C)C)c(-c3ccnn3C)cc2c1=O)S(C)(=O)=O` [Example 3.01, N-Acetyl-N-[7-isopropyl-6-(2-methyl-2H-pyrazol-3-yl)-2,4-dioxo-1,4-dihydro-2H-quinazolin-3-yl]-methanesulfonamide], the “%-Protection” value was determined as 100%.
